≈ marks a conversion by molar mass, not a printed value. Read-outs that look alike come from different tables or passages of the source. Square brackets hold non-standard residues; d marks the D form. Ends that are not written are not given here. Dha = C=C(N)C(=O)O
Legend:
E. faecalis 29212 = assay: MIC, two-fold serial dilution in broth; assay type: cell-based, Enterococcus faecalis; conditions: Table 8A; MHB + 50 μg/ml calcium; duplicate
Description: (§1) A selection of the variants produced in Example 1 above were tested further for activity against a range of bacteria. Minimum inhibitory concentrations (MICs) for all organisms with the exception of Streptococcus pneumoniae were determined by two-fold serial antibiotic dilutions in Mueller-Hinton broth (MHB) supplemented with 50 μg/ml calcium as calcium chloride dihydrate. Minimum inhibitory concentrations (MICs) for S. pneumoniae were determined by two-fold serial antibiotic dilutions in Brain Heart Infusion (BHI) broth supplemented with 50 μg/ml calcium as calcium chloride dihydrate. Antimicrobial agent stock solutions were prepared and stored according to NCCLS standard M7-A6.
(§2) Actively growing broth cultures were diluted to contain […] by adjusting to an absorbance of 0.2-0.3 at 600 nm, equivalent to the McFarland 0.5 standard. They were then diluted a further 1:100 in broth. The assays were performed in duplicate in sterile 96-well microtitre plates in a total volume of 200 μl (160 μl broth, 20 μl antibiotic, 20 μl inoculum) in a concentration range from 64 μg/ml to 0.06 μg/ml. The 12th well of the microtitre plate contained no antimicrobial agent. Vancomycin was used as a reference antibiotic for quality control. Plates were incubated aerobically, shaking, for 18-20 hours at 37° C. with the MIC defined as the lowest concentration of drug that produced no visible growth.

M. luteus 4698 = assay type: cell-based, Micrococcus luteus
Description: as §1, §2

E. faecium 11.4103A = assay: MIC, two-fold serial dilution in broth; assay type: cell-based, Enterococcus faecium; conditions: Table 8B; MHB + 50 μg/ml calcium; duplicate
Description: as §1, §2

E. faecium 19579 = assay: MIC, two-fold serial dilution in broth; assay type: cell-based, Enterococcus faecium; conditions: Table 8A; MHB + 50 μg/ml calcium; duplicate
Description: as §1, §2

S. aureus SH1000 = assay type: cell-based, Staphylococcus aureus; conditions: Table 8A; MHB + 50 μg/ml calcium; duplicate
Description: as §1, §2

S. aureus R33 = assay type: cell-based, Staphylococcus aureus; conditions: Table 8A; MHB + 50 μg/ml calcium; duplicate
Description: as §1, §2

S. pyogenes 13608 = assay type: cell-based, Streptococcus pyogenes
Description: (§3) MIC tests were performed with some of the variants of Example 2 on a range of other organisms. The results are shown in Tables 9 and 10 (figures in μg/ml): […]

S. pyogenes 16205 = assay type: cell-based, Streptococcus pyogenes
Description: as §3

E. faecium 4147 VRE = assay type: cell-based, Enterococcus faecium; conditions: 4147 VRE
Description: as §3

E. faecium 4147-1 = assay type: cell-based, Enterococcus faecium; conditions: 4147-1
Description: as §3

M. luteus = conditions: data of Szekat et al.; cited from earlier work
E. coli SM1411 = assay: MIC, two-fold serial dilution in broth; assay type: cell-based; conditions: Table 8B; MHB + 50 μg/ml calcium; duplicate
Description: as §1
as §2, with “Plates were incubated aerobically, shaking, for 18-20 hours at 37° C. with the MIC defined as the lowest concentration of drug that produced no visible growth.” left out

S. aureus COL MRSA = assay type: cell-based, Staphylococcus aureus
Description: as §3

S. aureus 1012-13 MRSA = assay type: cell-based, Staphylococcus aureus
Description: as §3

S. aureus SG511 = assay type: cell-based, Staphylococcus aureus
Description: as §3

S. aureus CS = assay type: cell-based, Staphylococcus aureus
Description: as §3

S. pneumoniae R6 = assay type: cell-based, Streptococcus pneumoniae; conditions: Table 8B; BHI broth + 50 μg/ml calcium; duplicate
Description: as §1, §2

E. faecium 7131121 = assay: MIC, two-fold serial dilution in broth; assay type: cell-based, Enterococcus faecium; conditions: Table 8A; MHB + 50 μg/ml calcium; duplicate
Description: as §1, §2

S. epidermidis 11047 = assay type: cell-based, Staphylococcus epidermidis; conditions: Table 8B; MHB + 50 μg/ml calcium; duplicate
Description: as §1, §2

| Compound | MIC E. faecalis 29212 (E. faecalis 29212) | MIC M. luteus 4698 (M. luteus 4698; Table 8B, MHB + 50 μg/ml calcium, duplicate) | MIC E. faecium 11.4103A (E. faecium 11.4103A) | MIC E. faecium 19579 (E. faecium 19579) | MIC S. aureus SH1000 (S. aureus SH1000) | MIC S. aureus R33 (S. aureus R33) | MIC S. pyogenes 13608 (S. pyogenes 13608) [µg/mL] | MIC S. pyogenes 16205 (S. pyogenes 16205) [µg/mL] | MIC E. faecium 4147 VRE (E. faecium 4147 VRE) [µg/mL] | MIC E. faecium 4147-1 (E. faecium 4147-1) [µg/mL] | MIC against M. luteus (M. luteus) [µg/mL] | MIC E. coli SM1411 (E. coli SM1411) | MIC M. luteus 4698 (M. luteus 4698; 4698) [µg/mL] | MIC S. aureus COL MRSA (S. aureus COL MRSA) [µg/mL] | MIC S. aureus 1012-13 MRSA (S. aureus 1012-13 MRSA) [µg/mL] | MIC S. aureus SG511 (S. aureus SG511) [µg/mL] | MIC S. aureus CS (S. aureus CS) [µg/mL] | MIC S. pneumoniae R6 (S. pneumoniae R6) | MIC E. faecium 7131121 (E. faecium 7131121) | MIC S. epidermidis 11047 (S. epidermidis 11047) |
| --- | --- | --- | --- | --- | --- | --- | --- | --- | --- | --- | --- | --- | --- | --- | --- | --- | --- | --- | --- | --- |
| G10V: mersacidin variant (CTFTLPGGGVVCTLT[Dha]ECIC; thioether (positions not given here); not fully specified; UniProt P43683 49-68, looked up, variant G10V) | >64, >64 μg/ml | <4, <4 μg/ml | >64, >64 μg/ml | >64, >64 μg/ml | >64, >64 μg/ml | >64, >64 μg/ml | – | – | – | – | – | – | – | – | – | – | – | – | – | – |
| C=C1NC(=O)C2NC(=O)[C@H](CC(C)C)NC(=O)C(NC(=O)[C@@H]3CSC(C)C(NC(=O)[C@H](Cc4ccccc4)NC(=O)C4NC(=O)[C@@H](N)CSC4C)C(=O)N[C@@H](CC(C)C)C(=O)N4CCC[C@H]4C(=O)NCC(=O)NCC(=O)NCC(=O)NCC(=O)N[C@@H](C(C)C)C(=O)N3)C(C)SC[C@H](NC(=O)[C@H](CCC(=O)O)NC1=O)C(=O)N[C@@H]([C@@H](C)CC)C(=O)NC=CSC2C (stereo partly shown) [Mersacidin, mersacidin] | – | – | – | – | – | – | 0.25 (≈ 0.137 µM) | 0.5 (≈ 0.274 µM) | 64 (≈ 35 µM) | 64 (≈ 35 µM) | 0.195 (≈ 0.107 µM) | >64, >64 μg/ml | 0.5 (≈ 0.274 µM) | 16 (≈ 8.76 µM) | 8 (≈ 4.38 µM) | 2 (≈ 1.1 µM) | 4 (≈ 2.19 µM) | <4, <4 μg/ml | – | – |
| G10N: mersacidin variant (CTFTLPGGGNVCTLT[Dha]ECIC; thioether (positions not given here); not fully specified; UniProt P43683 49-68, looked up, variant G10N) | >64, >64 μg/ml | – | – | >64, >64 μg/ml | >64, >64 μg/ml | >64, >64 μg/ml | – | – | – | – | – | – | – | – | – | – | – | >64, >64 μg/ml | >64, >64 μg/ml | >64, >64 μg/ml |

Source: patent publication US7592308B2, “F3W variants of the lantibiotic mersacidin and its use” (priority 2004, dated 2009)
